“And” between values parts separate entries of the source, which are not always exact repeats. Equal values may be shown once.
Test system: 832693-133-R-J1-PDC multi-cell spheroids, viability
Assay: Anticancer human tumor 832693-133-R-J1-PDC patient-derived head and neck squamous carcinoma cell line growth inhibition [IpAb]
Settings: for viability, T/C: stronger effect = lower value
Excerpt: Combinatorial screen of targeted agents with ipatasertib and abemaciclib in multi-cell type tumor spheroids
A high-throughput screen of multi-cell type tumor spheroids was designed to identify active combinations of targeted small molecules and ipatasertib or abemaciclib. Complex spheroids include a stromal component modeled by human endothelial cells (HUVEC) and fibroblasts modeled by human mesenchymal stem cells (MSCs). The concentration ranges selected for each drug and investigational agent were based upon clinically achievable concentrations if the clinical Cmax of the agent was known.
Compounds. The drugs and investigational agents: ipatasertib (NSC767898), abemaciclib(NSC768073), selumetinib (NSC741078), trametinib (758246), adavosertib (NSC754352), everolimus (NSC733504), sapanisertib (NSC764658), vemurafenib (NSC761431), venetoclax (NSC766270), copanlisib (NSC809693), apelisib (NSC765974), palbociblib (NSC758247), vemurafenib (NSC761431), dabrafenib (NSC764134), ravoxertinib (NSC781343), BMS-387032 (NSC767048), sotorasib (NSC818433), talazoparib (NSC767125) and afursertib (NSC778305), were obtained from the National Cancer Institute (NCI) Developmental Therapeutics Program Chemical Repository. The FDA-approved anticancer drug set is available from the NCI Developmental Therapeutics Program. […] The stock solutions were prepared in dimethyl sulfoxide (DMSO, Sigma-Aldrich, St. Louis, MO, cat. D2650) at 800-fold the tested concentration and stored at -70 degrees C prior to their use. All drugs and investigational agents were tested over a range starting from a high concentration at or near the clinical Cmax and decreasing in half-log increments. If the clinical Cmax for an agent had not been determined, the highest concentration tested was 10 microM.
NCI60 Cell Culture. NCI60 cell lines were obtained from the NCI Developmental Therapeutics Program Tumor Repository. For each lot of cells, the Repository performed Applied Biosystems AmpFLSTR Identifiler testing with PCR amplification to confirm consistency with the published Identifier STR profile for each cell line. Cells were kept in continuous culture for no more than 20 passages. The optimal seeding densities for each of the cell lines at each time point assessed were determined prior to performing the concentration response studies. Briefly, the NCI60 human tumor lines were grown as monolayers in RPMI 1640 medium supplemented with 10% FBS and 2 mmol/L L-glutamine.
An additional 9 lines were from the NCI60 cell line panel including MDA-MB-231 breast carcinoma, MDA-MB-468 breast carcinoma, MCF7 breast carcinoma, Hs578T breast carcinoma, MALME-3M melanoma, SK-MEL-2 melanoma, SK-OV-3 ovarian carcinoma, DU-145 prostate carcinoma, PC-3 prostate carcinoma, all cell lines along with major genetic alterations are listed on Table 2. Pooled donor human umbilical vein endothelial cells (HUVEC, Lonza, cat. CC-2519) and human mesenchymal stem cells (hMSC, Lonza, cat. PT-2501) were purchased from Lonza (Walkersville, MD).
PDMR cell lines were grown in complete medium (DC medium): Dulbecco's modified Eagle's medium (DMEM)/F12 supplemented with 5% fetal bovine serum (FBS), 2 mM L-glutamine, 100 U/mL penicillin and 100 µg/ml streptomycin, 0.4 µg/ml hydrocortisone, 10 ng/ml epidermal growth factor (EGF) recombinant human protein, 24 µg/mL adenine, and 0.1 mg/mL primocin. During culture from frozen stock vials, PDMR cells were cultured in the same medium containing 10 µM Y-27632 (see Table 3). The PDCs were cultured in complete DMEM/F12 media without 10 microM Y-27632 dihydrochloride for at least two passages prior to the screen. The pooled donor HUVEC and hMSC were cultured in endothelial cell growth medium 2 (PromoCell, Heidelberg, Germany, cat. C-22011) and mesenchymal stem cell growth medium 2 (PromoCell, cat. C-28009), respectively. For all experiments, HUVEC and hMSC were used at passages </=5.
[…]
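Also: spheroids exposed to the drugs for one week before the viability readout.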
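For viability, T/C in this document: 100% = DMSO vehicle control wells.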

SMILES	viability, T/C (compound 0.0316 µM)	viability, T/C (compound 0.1 µM)	viability, T/C (compound 0.316 µM)	viability, T/C (compound 1 µM)	viability, T/C (compound 3.16 µM)	viability, T/C (compound 10 µM)	IC50 (curve of compound)	viability, T/C (compound 0.01 µM)	further results
C=CC(=O)N1CCN(c2nc(=O)n(-c3c(C)ccnc3C(C)C)c3nc(-c4c(O)cccc4F)c(F)cc23)C(C)C1 (stereo unspecified)	105% and 95%	108% and 101%	111% and 103%	114% and 115%	122% and 110%	100% and 98.5%	> 10 µM		
C=CCn1c(=O)c2cnc(Nc3ccc(N4CCN(C)CC4)cc3)nc2n1-c1cccc(C(C)(C)O)n1	94% and 91.3%	79.8% and 71.9%	32.5% and 35.4%	27% and 31.5%	25.9% and 28.6%	12.5% and 11.7%	0.208 µM and 0.221 µM		
CC(=O)c1c(C)c2cnc(Nc3ccc(N4CCNCC4)cn3)nc2n(C2CCCC2)c1=O							> 0.3 µM		viability, T/C (compound 0.000949 µM): 87.4% and 105%; viability, T/C (compound 0.003 µM): 87.3% and 96.4%; viability, T/C (compound 0.00949 µM): 79.2% and 84.6%; viability, T/C (compound 0.03 µM): 66.9% and 69.8%; viability, T/C (compound 0.0949 µM): 69.9% and 64.3%; viability, T/C (compound 0.3 µM): 51% and 55.9%
CC(C)(C)c1cnc(CSc2cnc(NC(=O)C3CCNCC3)s2)o1							0.57 µM and 0.626 µM		viability, T/C (compound 0.00949 µM): 115% and 100%; viability, T/C (compound 0.03 µM): 127%; viability, T/C (compound 0.0949 µM): 143% and 156%; viability, T/C (compound 0.3 µM): 111% and 164%; viability, T/C (compound 0.949 µM): 1.31% and 0.89%; viability, T/C (compound 3 µM): 1.26% and 1.3%
CC(C)NCC(C(=O)N1CCN(c2ncnc3c2C(C)CC3O)CC1)c1ccc(Cl)cc1 (stereo unspecified)		89.5% [middle of 13 runs]	78.2% [middle of 12 runs]	58% [middle of 13 runs]	55.3% [middle of 13 runs]	58.4% [middle of 13 runs]			IC50 (compound alone, run of 05/18/2021): > 10 µM and 6.66 µM and 1.87 µM
CC(C)n1nc(-c2ccc3oc(N)nc3c2)c2c(N)ncnc21	67.5% and 60.2%	61.8% and 52.7%					> 0.1 µM	76.9% and 68.7%	viability, T/C (compound 0.000316 µM): 94.6% and 91.2%; viability, T/C (compound 0.001 µM): 89.4% and 88.7%; viability, T/C (compound 0.00316 µM): 86.9% and 76%
CC1(C)CCC(CN2CCN(c3ccc(C(=O)NS(=O)(=O)c4ccc(NCC5CCOCC5)c([N+](=O)[O-])c4)c(Oc4cnc5[nH]ccc5c4)c3)CC2)=C(c2ccc(Cl)cc2)C1	98.5% and 113%	98.3% and 122%	106% and 107%	108% and 102%	110% and 90.5%		8.78 µM and 5.33 µM		
CCCS(=O)(=O)Nc1ccc(F)c(C(=O)c2c[nH]c3ncc(-c4ccc(Cl)cc4)cc23)c1F	102% and 106%	107% and 108%	99.7% and 108%	95.7% and 90.7%	67.7% and 69.2%	37% and 39.9%	6.16 µM and 6.68 µM		
CCN1CCN(Cc2ccc(Nc3ncc(F)c(-c4cc(F)c5nc(C)n(C(C)C)c5c4)n3)nc2)CC1	82.1% [middle of 13 runs]	63.8% [middle of 13 runs]	57.4% [middle of 13 runs]	59.1% [middle of 13 runs]				97.5% [middle of 13 runs]	
COc1c(OCCCN2CCOCC2)ccc2c3n(c(=NC(=O)c4cnc(N)nc4)nc12)CCN3	21.3% and 29.8%	9.21% and 9.49%	4.67% and 4.86%	4.72% and 4.34%			0.0155 µM and 0.0188 µM	67.5% and 74.3%	viability, T/C (compound 0.00316 µM): 93.8% and 99%
